Data published in US5607926A, “Cephalosporin antibiotics” (Microcide Pharmaceuticals, Inc., priority 1995, dated 1997).
In brackets after ≈: the same amount, converted by molar mass. Like-named read-outs stand apart in the source and are kept apart here.

Assays:
Type in all cases: cell-based
[1] = test system: E. faecalis ATCC 29212; test: In vitro antibacterial evaluation, MIC by agar dilution, E. faecalis ATCC 29212; conditions: Enterococcus faecalis, ATCC29212; E. faecalis ATCC 29212; read-out: MIC
Summary of the method: (§1)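 In this standardized agar dilution format, compound was dissolved in PBS pH 7.2, with Tween 20 or DMSO as needed, and mixed into molten Mueller-Hinton agar to final levels of 128 down to ≤0.25 μg/mL. About 10^4 cfu were spotted per isolate, and MIC was recorded after 16-20 h at 35°-36° C.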

[2] = test system: E. coli ATCC 25922; test: In vitro antibacterial evaluation, MIC by agar dilution, E. coli ATCC 25922; conditions: Escherichia coli, ATCC25922, read-out: MIC
Summary of the method: as §1

[3] = test system: S. epidermidis ATCC 31432; test: In vitro antibacterial evaluation, MIC by agar dilution, S. epidermidis ATCC 31432; conditions: Staphylococcus epidermidis, ATCC31432
Summary of the method: as §1

[4] = test system: X. maltophilia ATCC 13637; test: In vitro antibacterial evaluation, MIC by agar dilution, X. maltophilia ATCC 13637; conditions: Stenotrophomonas maltophilia, ATCC13637
Experimental: The compounds of the invention were evaluated against several β-lactamresistant bacteria strains by determining the minimum inhibitory concentration (MIC, μg/ml) of each compound with respect to each strain. The MIC, the lowest concentration of antibiotic which inhibits growth of the test organism, was determined by the agar dilution method.
To determine the MIC for bacterial isolates, the test compound was incorporated in a series of two-fold dilutions into liquified Mueller-Hinton agar. Upon solidification, a number of different bacterial strains were spot inoculated with a replicating device onto the agar surface. […] The procedures used in these studies have been standardized by the National Committee for Clinical Laboratory Standards (NCCLS), as per the NCCLS publication entitled METHODS FOR DILUTION ANTIMICROBIAL SUSCEPTIBILITY TESTS (1991), which is incorporated herein by reference.
Aliquots of antimicrobial agents were prepared in phosphate buffered saline (PBS) at pH 7.2. Tween 20 or DMSO was used as a solubilizing vehicle as needed. Standard methods of vortexing, sonicating and gentle heat were used to facilitate solubilizing the test agent. Typically, the concentration of the stock solution was 10× that of the highest drug concentration tested. A 1.28 mg/mL stock solution was used with a subsequent highest working concentration of 128 μg/mL. Serial two-fold dilutions were done through ≤0.25 μg/mL. Each drug level was tested in duplicate. Two-fold drug dilutions were done in sterile 50 mL tubes with a final drug volume of 5 mL. Upon the addition of 45 mL of molten agar, a 10-fold dilution resulted. Two, 25 mL. plates were then poured into 15×150 mm square Petri plates with grids and allowed to harden.
A control plate with a reference drug, either cefotaxime, vancomycin or imipenem, was used as the positive growth control. Stock concentrations of reference antibiotics were prepared and frozen at -80° C. Upon preparation, the control plates were sealed and stored in the refrigerator for up to 1 week prior to use; however, imipenem control plates had to be prepared just prior to use. All test plates were used within 24 hours of preparation.
Satisfactory results were obtained where the inoculum contained about 10^4 colony forming units (cfu) ±0.5 logs. Starting with pure cultures of the test isolates on agar plates, a few isolated colonies were transferred to a tube of nutrient broth and allowed to grow 4-6 hours at 35°-36° C. to reach log-phase growth. Dropwise addition of the broth culture to PBS was done to match a 0.5 McFarland turbidity standard equal to 10^8 cfu/mL. This was further diluted ten-fold in PBS to reach a working inoculum concentration of 10^7 cfu/mL. When 1 μL of the working inoculum was applied to the agar surface a concentration of about 10^4 cfu per spot was obtained.
Disposable sterile 1 μL loops were used to inoculate test plates, with each isolate in a designated grid on the agar plate. An alternate method of inoculation involved the use of a replica plater, a device with 48 steel pins allowing the simultaneous inoculation of multiple isolates. After the spots had dried, the plates were incubated at 35°-36° C. for 16-20 hours. Endpoints were assessed as the minimum inhibitory concentration (MIC) of antimicrobial agent.

[5] = test system: S. haemolyticus (Meth^R); test: In vitro antibacterial evaluation, MIC by agar dilution, S. haemolyticus; conditions: Staphylococcus haemolyticus, read-out: MIC
Summary of the method: as §1

[6] = test system: P. aeruginosa ATCC 27853; test: In vitro antibacterial evaluation, MIC by agar dilution, P. aeruginosa ATCC 27853; conditions: Pseudomonas aeruginosa, ATCC27853, read-out: MIC
Summary of the method: as §1

[7] = test system: S. aureus 76 (Meth^R)(lac^+); test: In vitro antibacterial evaluation, MIC by agar dilution, S. aureus 76; conditions: Staphylococcus aureus, read-out: MIC
Summary of the method: as §1

[8] = test system: E. faecium ATCC 35667; test: In vitro antibacterial evaluation, MIC by agar dilution, E. faecium ATCC 35667; conditions: Enterococcus faecium, ATCC35667, read-out: MIC
Summary of the method: as §1

[9] = test system: S. aureus Col8A (Meth^S)(lac^-); test: In vitro antibacterial evaluation, MIC by agar dilution, S. aureus Col8A; conditions: Staphylococcus aureus
Summary of the method: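 Log-phase isolates were spot-inoculated at about 10^4 cfu onto Mueller-Hinton agar carrying duplicate two-fold compound levels, 128 μg/mL to ≤0.25 μg/mL, following NCCLS (1991). Plates were read after 16-20 h at 35°-36° C. The lowest growth-inhibiting concentration gave the MIC (μg/ml).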

[10] = test system: S. aureus ATCC 25923; test: In vitro antibacterial evaluation, MIC by agar dilution, S. aureus ATCC 25923; conditions: Staphylococcus aureus, ATCC25923
Summary of the method: as §1

[11] = test system: S. aureus ATCC 29213; test: In vitro antibacterial evaluation, MIC by agar dilution, S. aureus ATCC 29213; conditions: Staphylococcus aureus, ATCC29213
Summary of the method: as §1

[12] = S. epidermidis ATCC 31432, read-out: MIC
[13] = S. aureus ATCC 25923, read-out: MIC
[14] = S. aureus ATCC 29213, read-out: MIC

## O=C(Cc1ccccc1)N[C@@H]1C(=O)N2C(C(=O)O)=C(Sc3cccc(I)c3)CS[C@H]12 [Cmpd 2, (7R)-7-[(Phenylacetyl)amino]-3-(m-iodophenylthio)-3-cephem-4-carboxylic acid]
[1]
  MIC: 2 mg/L (≈ 3.62 µM)
[2]
  MIC: > 32 mg/L
[3]; [12]
  MIC: < 0.015 mg/L
[4]
  MIC: > 32 mg/L
[5]
  MIC: 16 mg/L (≈ 29 µM)
[6]
  MIC: > 32 mg/L
[7]
  MIC: 16 mg/L (≈ 29 µM)
[8]
  MIC: 2 mg/L (≈ 3.62 µM)
[9]
  MIC: 0.03 mg/L (≈ 0.0543 µM)
[10]; [13]
  MIC: < 0.015 mg/L
[11]; [14]
  MIC: 0.03 mg/L (≈ 0.0543 µM)

## O=C(Cc1ccccc1)N[C@@H]1C(=O)N2C(C(=O)O)=C(Sc3ccc(Cl)cc3)CS[C@H]12 [Cmpd 3, (7R)-7-[(Phenylacetyl)amino]-3-(p-chlorophenylthio)-3-cephem-4-carboxylic acid]
[1]
  MIC: 2 mg/L (≈ 4.34 µM)
[2]
  MIC: > 32 mg/L
[3]
  MIC: < 0.015 mg/L
[4]
  MIC: > 32 mg/L
[5]
  MIC: 16 mg/L (≈ 34.7 µM)
[6]
  MIC: > 32 mg/L
[7]
  MIC: 16 mg/L (≈ 34.7 µM)
[8]
  MIC: 4 mg/L (≈ 8.68 µM)
[9]
  MIC: 0.015 mg/L (≈ 0.0325 µM)
[10]
  MIC: < 0.015 mg/L
[11]; [14]
  MIC: 0.03 mg/L (≈ 0.0651 µM)

## O=C(Cc1ccccc1)N[C@@H]1C(=O)N2C(C(=O)O)=C(Sc3ccccc3Br)CS[C@H]12 [Cmpd 4, (7R)-7-[(Phenylacetyl)amino]-3-(o-bromophenylthio)-3-cephem-4-carboxylic acid]
[1]
  MIC: 4 mg/L (≈ 7.91 µM)
[2]
  MIC: > 32 mg/L
[3]; [12]
  MIC: < 0.06 mg/L
[4]
  MIC: > 32 mg/L
[5]
  MIC: 16 mg/L (≈ 31.7 µM)
[6]
  MIC: > 32 mg/L
[7]
  MIC: 4 mg/L (≈ 7.91 µM)
[8]
  MIC: 2 mg/L (≈ 3.96 µM)
[9]
  MIC: < 0.06 mg/L
[10]; [13]
  MIC: < 0.06 mg/L
[11]; [14]
  MIC: 0.125 mg/L (≈ 0.247 µM)

## O=C(Cc1ccccc1)N[C@@H]1C(=O)N2C(C(=O)O)=C(Sc3ccc(Br)cc3)CS[C@H]12 [Cmpd 5, (7R)-7-[(Phenylacetyl)amino]-3-(p-bromophenylthio)-3-cephem-4-carboxylic acid]
[1]
  MIC: 2 mg/L (≈ 3.96 µM)
[2]
  MIC: > 32 mg/L
[3]; [12]
  MIC: < 0.015 mg/L
[4]
  MIC: > 32 mg/L
[5]
  MIC: 16 mg/L (≈ 31.7 µM)
[6]
  MIC: > 32 mg/L
[7]
  MIC: 16 mg/L (≈ 31.7 µM)
[8]
  MIC: 4 mg/L (≈ 7.91 µM)
[9]
  MIC: 0.03 mg/L (≈ 0.0594 µM)
[10]; [13]
  MIC: < 0.015 mg/L
[11]; [14]
  MIC: 0.03 mg/L (≈ 0.0594 µM)

## O=C(Cc1ccccc1)N[C@@H]1C(=O)N2C(C(=O)O)=C(Sc3ccc(-c4ccccc4)cc3Br)CS[C@H]12 [Cmpd 11, (7R)-7-[(Phenylacetyl)amino]-3-(2-bromo-4-biphenylthio)-3-cephem-4-carboxylic acid]
[1]
  MIC: 2 mg/L (≈ 3.44 µM)
[2]
  MIC: > 32 mg/L
[3]; [12]
  MIC: 0.03 mg/L (≈ 0.0516 µM)
[4]
  MIC: > 32 mg/L
[5]
  MIC: 4 to 8 mg/L (≈ 6.88 to 13.8 µM)
[6]
  MIC: > 32 mg/L
[7]
  MIC: 4 mg/L (≈ 6.88 µM)
[8]
  MIC: 4 mg/L (≈ 6.88 µM)
[9]
  MIC: 0.06 mg/L (≈ 0.103 µM)
[10]; [13]
  MIC: < 0.015 mg/L
[11]; [14]
  MIC: 0.125 mg/L (≈ 0.215 µM)

## O=C(Cc1ccccc1)N[C@@H]1C(=O)N2C(C(=O)O)=C(Sc3ccc(-c4ccccc4)cc3F)CS[C@H]12 [Cmpd 13, (7R)-7-[(Phenylacetyl)amino]-3-(2-fluoro-4-biphenylthio)-3-cephem-4-carboxylic acid]
[1]
  MIC: 2 mg/L (≈ 3.84 µM)
[2]
  MIC: > 32 mg/L
[3]; [12]
  MIC: 0.03 mg/L (≈ 0.0576 µM)
[4]
  MIC: > 32 mg/L
[5]
  MIC: 16 mg/L (≈ 30.7 µM)
[6]
  MIC: > 32 mg/L
[7]
  MIC: 16 mg/L (≈ 30.7 µM)
[8]
  MIC: 4 mg/L (≈ 7.68 µM)
[9]
  MIC: 0.06 mg/L (≈ 0.115 µM)
[10]; [13]
  MIC: < 0.015 mg/L
[11]; [14]
  MIC: 0.06 mg/L (≈ 0.115 µM)

## O=C(Cc1ccccc1)N[C@@H]1C(=O)N2C(C(=O)O)=C(Sc3ccc(Br)cc3-c3ccccc3)CS[C@H]12 [Cmpd 14, (7R)-7-[(Phenylacetyl)amino]-3-(4-bromo-2-biphenylthio)-3-cephem-4-carboxylic acid]
[1]
  MIC: 2 mg/L (≈ 3.44 µM)
[2]
  MIC: > 32 mg/L
[3]; [12]
  MIC: 0.06 mg/L (≈ 0.103 µM)
[4]
  MIC: > 32 mg/L
[5]
  MIC: 8 mg/L (≈ 13.8 µM)
[6]
  MIC: > 32 mg/L
[7]
  MIC: 4 mg/L (≈ 6.88 µM)
[8]
  MIC: 1 mg/L (≈ 1.72 µM)
[9]
  MIC: 0.25 mg/L (≈ 0.43 µM)
[10]; [13]
  MIC: 0.06 mg/L (≈ 0.103 µM)
[11]
  MIC: 0.25 mg/L (≈ 0.43 µM)

## O=C(Cc1ccccc1)N[C@@H]1C(=O)N2C(C(=O)O)=C(Sc3ccccc3Cl)CS[C@H]12 [Cmpd 15, (7R)-7-[(Phenylacetyl)amino]-3-(o-chlorophenylthio)-3-cephem-4-carboxylic acid]
[1]
  MIC: 2 mg/L (≈ 4.34 µM)
[2]
  MIC: > 32 mg/L
[3]; [12]
  MIC: 0.03 mg/L (≈ 0.0651 µM)
[4]
  MIC: > 32 mg/L
[5]
  MIC: 16 mg/L (≈ 34.7 µM)
[6]
  MIC: > 32 mg/L
[7]
  MIC: 8 mg/L (≈ 17.4 µM)
[8]
  MIC: 2 mg/L (≈ 4.34 µM)
[9]
  MIC: 0.06 mg/L (≈ 0.13 µM)
[10]; [13]
  MIC: 0.03 mg/L (≈ 0.0651 µM)
[11]; [14]
  MIC: 0.06 mg/L (≈ 0.13 µM)
